The numbers were not newly measured in patent US10376470B2, “Oral tablet formulation consisting of fixed combination of rosuvastatin and ezetimibe for treatment of hyperlipidemia and cardiovascular diseases” (Althera Life Sciences, LLC, priority 2012, dated 2019), which cites them from elsewhere.

For the compound `O=C1[C@H](CC[C@H](O)c2ccc(F)cc2)[C@@H](c2ccc(O)cc2)N1c1ccc(F)cc1` [Ezetimibe, ezetimibe], the Solubility in water result is on record as “practically insoluble”.
